Assay: Percentage unbound in Han Wistar rat plasma by equilibrium dialysis method
Assay type: ADME, cell-free
Settings: not given

SMILES | fraction unbound
COc1ccc2c(c1)C[C@@H](C)N(CC(C)C)[C@@H]2c1ccc(/C=C/C(=O)O)cc1 | 0.034
CC(C)CN1CCc2cc(O)ccc2[C@@H]1c1ccc(/C=C/C(=O)O)cc1 | 0.087
CC(C)CN1[C@H](c2ccc(/C=C/C(=O)O)cc2)c2ccccc2C[C@H]1C | 0.016
C[C@@H]1Cc2cc(O)ccc2[C@@H](c2c(F)cc(/C=C/C(=O)O)cc2F)N1CC(C)(C)F | 0.011
C[C@H](CF)CN1[C@H](c2c(F)cc(/C=C/C(=O)O)cc2F)c2ccc(O)cc2CC1(C)C | 0.005
CC(C)CN1[C@H](c2c(F)cc(/C=C/C(=O)O)cc2F)c2ccc(O)cc2CC1(C)C | 0.004
CC(C)CN1[C@H](C)Cc2cc(O)ccc2[C@@]1(C)c1ccc(/C=C/C(=O)O)cc1 | 0.013
COC[C@H](C)CN1[C@H](c2c(F)cc(/C=C/C(=O)O)cc2F)c2ccc(O)cc2CC1(C)C | 0.042
CC(C)(F)CN1[C@H](c2ccc(/C=C/C(=O)O)cc2)c2ccc(O)cc2CC1(C)C | 0.025
CC(C)CN1[C@H](c2ccc(/C=C/C(=O)O)cc2)c2ccc(O)cc2CC1(C)C | 0.11
C[C@H](CF)CN1[C@H](c2c(F)cc(/C=C/C(=O)O)cc2F)c2ccc(O)cc2C[C@H]1C | 0.01
CC(C)CN1CCc2cc(O)ccc2[C@H]1c1ccc(/C=C/C(=O)O)cc1 | 0.037

Assay: Percentage unbound in human plasma by equilibrium dialysis method
Assay type: ADME, cell-free
Settings: not given

SMILES | fraction unbound
COc1ccc2c(c1)C[C@@H](C)N(CC(C)C)[C@@H]2c1ccc(/C=C/C(=O)O)cc1 | 0.02
CC(C)CN1CCc2cc(O)ccc2[C@@H]1c1ccc(/C=C/C(=O)O)cc1 | 0.019
CC(C)CN1[C@H](c2ccc(/C=C/C(=O)O)cc2)c2ccccc2C[C@H]1C | 0.021
C[C@@H]1Cc2cc(O)ccc2[C@@H](c2c(F)cc(/C=C/C(=O)O)cc2F)N1CC(C)(C)F | 0.023
C[C@H](CF)CN1[C@H](c2c(F)cc(/C=C/C(=O)O)cc2F)c2ccc(O)cc2CC1(C)C | 0.002
CC(C)CN1[C@H](c2c(F)cc(/C=C/C(=O)O)cc2F)c2ccc(O)cc2CC1(C)C | 0.005
CC(C)CN1[C@H](C)Cc2cc(O)ccc2[C@@]1(C)c1ccc(/C=C/C(=O)O)cc1 | 0.015
COC[C@H](C)CN1[C@H](c2c(F)cc(/C=C/C(=O)O)cc2F)c2ccc(O)cc2CC1(C)C | 0.01
CC(C)(F)CN1[C@H](c2ccc(/C=C/C(=O)O)cc2)c2ccc(O)cc2CC1(C)C | 0.007
CC(C)CN1[C@H](c2ccc(/C=C/C(=O)O)cc2)c2ccc(O)cc2CC1(C)C | 0.035
C[C@H](CF)CN1[C@H](c2c(F)cc(/C=C/C(=O)O)cc2F)c2ccc(O)cc2C[C@H]1C | 0.009
CC(C)CN1CCc2cc(O)ccc2[C@H]1c1ccc(/C=C/C(=O)O)cc1 | 0.063

Assay: Intrinsic clearance in Han Wistar rat hepatocytes assessed per 10^6 cells
Assay type: ADME, cell-based, Hepatocyte
Settings: read-out: CLH

SMILES | hepatocyte CLint [µL/min/1e6 cells]
COc1ccc2c(c1)C[C@@H](C)N(CC(C)C)[C@@H]2c1ccc(/C=C/C(=O)O)cc1 | 43
CC(C)CN1CCc2cc(O)ccc2[C@@H]1c1ccc(/C=C/C(=O)O)cc1 | 49
CC(C)CN1[C@H](c2ccc(/C=C/C(=O)O)cc2)c2ccccc2C[C@H]1C | 24
C[C@@H]1Cc2cc(O)ccc2[C@@H](c2c(F)cc(/C=C/C(=O)O)cc2F)N1CC(C)(C)F | 74
C[C@H](CF)CN1[C@H](c2c(F)cc(/C=C/C(=O)O)cc2F)c2ccc(O)cc2CC1(C)C | 68
CC(C)CN1[C@H](c2c(F)cc(/C=C/C(=O)O)cc2F)c2ccc(O)cc2CC1(C)C | 34
CC(C)CN1[C@H](C)Cc2cc(O)ccc2[C@@]1(C)c1ccc(/C=C/C(=O)O)cc1 | 15
COC[C@H](C)CN1[C@H](c2c(F)cc(/C=C/C(=O)O)cc2F)c2ccc(O)cc2CC1(C)C | 180
CC(C)(F)CN1[C@H](c2ccc(/C=C/C(=O)O)cc2)c2ccc(O)cc2CC1(C)C | 59
CC(C)CN1[C@H](c2ccc(/C=C/C(=O)O)cc2)c2ccc(O)cc2CC1(C)C | 7
C[C@H](CF)CN1[C@H](c2c(F)cc(/C=C/C(=O)O)cc2F)c2ccc(O)cc2C[C@H]1C | 94
CC(C)CN1CCc2cc(O)ccc2[C@H]1c1ccc(/C=C/C(=O)O)cc1 | 38

Assay: Intrinsic clearance in human hepatocytes assessed per 10^6 cells
Assay type: ADME, cell-based, Hepatocyte
Settings: read-out: CLH

SMILES | hepatocyte CLint [µL/min/1e6 cells]
COc1ccc2c(c1)C[C@@H](C)N(CC(C)C)[C@@H]2c1ccc(/C=C/C(=O)O)cc1 | 56
CC(C)CN1CCc2cc(O)ccc2[C@@H]1c1ccc(/C=C/C(=O)O)cc1 | 4
CC(C)CN1[C@H](c2ccc(/C=C/C(=O)O)cc2)c2ccccc2C[C@H]1C | 45
C[C@@H]1Cc2cc(O)ccc2[C@@H](c2c(F)cc(/C=C/C(=O)O)cc2F)N1CC(C)(C)F | 78
C[C@H](CF)CN1[C@H](c2c(F)cc(/C=C/C(=O)O)cc2F)c2ccc(O)cc2CC1(C)C | 39
CC(C)CN1[C@H](c2c(F)cc(/C=C/C(=O)O)cc2F)c2ccc(O)cc2CC1(C)C | 33
CC(C)CN1[C@H](C)Cc2cc(O)ccc2[C@@]1(C)c1ccc(/C=C/C(=O)O)cc1 | 18
COC[C@H](C)CN1[C@H](c2c(F)cc(/C=C/C(=O)O)cc2F)c2ccc(O)cc2CC1(C)C | 88
CC(C)(F)CN1[C@H](c2ccc(/C=C/C(=O)O)cc2)c2ccc(O)cc2CC1(C)C | 19
CC(C)CN1[C@H](c2ccc(/C=C/C(=O)O)cc2)c2ccc(O)cc2CC1(C)C | 6
C[C@H](CF)CN1[C@H](c2c(F)cc(/C=C/C(=O)O)cc2F)c2ccc(O)cc2C[C@H]1C | 170
CC(C)CN1CCc2cc(O)ccc2[C@H]1c1ccc(/C=C/C(=O)O)cc1 | 38

Assay: Clearance in rat at 0.5 mg/kg, iv or 1 mg/kg, po
Assay type: ADME, organism-based
Settings: in vivo

SMILES | clearance [mL/min/kg]
CC(C)CN1[C@H](C)Cc2cc(O)ccc2[C@@]1(C)c1ccc(/C=C/C(=O)O)cc1 | 19
CC(C)CN1[C@H](c2ccc(/C=C/C(=O)O)cc2)c2ccc(O)cc2CC1(C)C | 21
CC(C)CN1CCc2cc(O)ccc2[C@H]1c1ccc(/C=C/C(=O)O)cc1 | 44

Assay: Volume of distribution at steady state in rat at 0.5 mg/kg, iv or 1 mg/kg, po
Assay type: ADME, organism-based
Settings: in vivo, read-out: Vdss

SMILES | Vd [L/kg]
CC(C)CN1[C@H](C)Cc2cc(O)ccc2[C@@]1(C)c1ccc(/C=C/C(=O)O)cc1 | 1.6
CC(C)CN1[C@H](c2ccc(/C=C/C(=O)O)cc2)c2ccc(O)cc2CC1(C)C | 5.9
CC(C)CN1CCc2cc(O)ccc2[C@H]1c1ccc(/C=C/C(=O)O)cc1 | 0.5

Assay: Half life in rat at 1 mg/kg, po
Assay type: ADME, organism-based
Settings: in vivo

SMILES | half-life [h]
CC(C)CN1[C@H](C)Cc2cc(O)ccc2[C@@]1(C)c1ccc(/C=C/C(=O)O)cc1 | 5.6
CC(C)CN1[C@H](c2ccc(/C=C/C(=O)O)cc2)c2ccc(O)cc2CC1(C)C | 7.4
CC(C)CN1CCc2cc(O)ccc2[C@H]1c1ccc(/C=C/C(=O)O)cc1 | 3

Assay: Half life in rat at 0.5 mg/kg, iv
Assay type: ADME, organism-based
Settings: in vivo

SMILES | half-life [h]
CC(C)CN1[C@H](C)Cc2cc(O)ccc2[C@@]1(C)c1ccc(/C=C/C(=O)O)cc1 | 2.4
CC(C)CN1[C@H](c2ccc(/C=C/C(=O)O)cc2)c2ccc(O)cc2CC1(C)C | 5.8
CC(C)CN1CCc2cc(O)ccc2[C@H]1c1ccc(/C=C/C(=O)O)cc1 | 0.2

Assay: in vivo
Settings: rat, po, 1 mg/kg

SMILES | bioavailability [%]
CC(C)CN1[C@H](c2c(F)cc(/C=C/C(=O)O)cc2F)c2ccc(O)cc2CC1(C)C | > 70
CC(C)CN1[C@H](C)Cc2cc(O)ccc2[C@@]1(C)c1ccc(/C=C/C(=O)O)cc1 | 33
CC(C)CN1[C@H](c2ccc(/C=C/C(=O)O)cc2)c2ccc(O)cc2CC1(C)C | 66
CC(C)CN1CCc2cc(O)ccc2[C@H]1c1ccc(/C=C/C(=O)O)cc1 | 26

Assay: physchem
Settings: buffer, pH 7.4

SMILES | logD
COc1ccc2c(c1)C[C@@H](C)N(CC(C)C)[C@@H]2c1ccc(/C=C/C(=O)O)cc1 | 2.3
CC(C)CN1CCc2cc(O)ccc2[C@@H]1c1ccc(/C=C/C(=O)O)cc1 | 1.4
CC(C)CN1[C@H](c2ccc(/C=C/C(=O)O)cc2)c2ccccc2C[C@H]1C | 2.5
C[C@@H]1Cc2cc(O)ccc2[C@@H](c2c(F)cc(/C=C/C(=O)O)cc2F)N1CC(C)(C)F | 2.1
C[C@H](CF)CN1[C@H](c2c(F)cc(/C=C/C(=O)O)cc2F)c2ccc(O)cc2CC1(C)C | 3.1
CC(C)CN1[C@H](c2c(F)cc(/C=C/C(=O)O)cc2F)c2ccc(O)cc2CC1(C)C | 2.7
CC(C)CN1[C@H](C)Cc2cc(O)ccc2[C@@]1(C)c1ccc(/C=C/C(=O)O)cc1 | 2.7
COC[C@H](C)CN1[C@H](c2c(F)cc(/C=C/C(=O)O)cc2F)c2ccc(O)cc2CC1(C)C | 2
CC(C)(F)CN1[C@H](c2ccc(/C=C/C(=O)O)cc2)c2ccc(O)cc2CC1(C)C | 2.3
CC(C)CN1[C@H](c2ccc(/C=C/C(=O)O)cc2)c2ccc(O)cc2CC1(C)C | 1.5
C[C@H](CF)CN1[C@H](c2c(F)cc(/C=C/C(=O)O)cc2F)c2ccc(O)cc2C[C@H]1C | 2.5
CC(C)CN1CCc2cc(O)ccc2[C@H]1c1ccc(/C=C/C(=O)O)cc1 | 1.3

— ChEMBL document CHEMBL3774369, “Tetrahydroisoquinoline Phenols: Selective Estrogen Receptor Downregulator Antagonists with Oral Bioavailability in Rat” (ACS Med Chem Lett, 2016)
